The subject of data set [1] is human non-small cell lung cancer NCI-H446. As to the kind of experiment: Inhibitory activity of larotaxel and tesetaxel derivatives on subcutaneously xenografted tumor NCI-H446 in nude mice. To be noted: D0 IV; for Weight change (%) D5: nude mice; for T/C (%) D20 / Tumor volume (mm^3) (D20) / Tumor inhibitory percent (%) D20 / Tumor volume (mm^3) (D0): NCI-H446 xenograft in nude mice; for Tumor inhibitory percent (%) D20: P = 0.000 vs control; for Tumor volume (mm^3) (D0): baseline at grouping (D0). From the text: Human […] NCI-H446 cells were subcutaneously inoculated into nude mice.

A short description of data set [2]: In vitro dissociation in blood plasma of rabbit. In kind it is in vitro ADME, New Zealand white rabbits. Particulars: fresh New Zealand white rabbit plasma, 37° C. The method, then: The obtained water soluble taxane derivatives of the following formulae were formulated as 0.2 mg/ml aqueous solutions. […]
The nature of data set [3]: In vitro dissociation in blood plasma of rat. In kind it is in vitro ADME, SD rats. To be noted: fresh SD rat plasma, 37° C.; for Sampling time/Dissociation percent (%) 2 min: 2 min incubation; for Sampling time/Dissociation percent (%) 5 min: 5 min incubation; for Sampling time/Dissociation percent (%) 10 min: 10 min incubation. As to the method:
The obtained water soluble taxane derivatives of the following formulae were formulated as 0.2 mg/ml aqueous solutions. […] After 2 min, 5 min and 10 min of incubation, 0.2 ml of solutions were respectively taken from each of the samples, and added to acetonitrile (0.4 ml) cooled to −20° C. for precipitation of protein.

For data set [4], the system named is human prostate cancer PC-3. As to the kind of experiment: Inhibitory activity of cabazitaxel derivatives on subcutaneously xenografted tumor PC-3 in nude mice. Particulars: 13 mg/kg, D0 IV; for Weight change (%) D6: nude mice; for T/C (%) D20 / Tumor volume (mm^3) (D20) / Tumor inhibitory percent (%) D20 / Tumor volume (mm^3) (D0): PC-3 xenograft in nude mice; for Tumor inhibitory percent (%) D20: P = 0.000 vs control; for Tumor volume (mm^3) (D0): baseline at grouping (D0).
From the text: Purpose: to evaluate and compare the inhibitory activity of the water soluble cabazitaxel derivatives and cabazitaxel on subcutaneously xenografted tumor of human prostate cancer PC-3 in nude mice.
Human prostate cancer PC-3 cells were subcutaneously inoculated into nude mice. After the tumor volume reached 100-150 mm^3, the animals were randomly divided into several groups, and administered with the water soluble cabazitaxel derivatives of the following formula and cabazitaxel, respectively once on the same day (D0). The tumor volume was measured 2-3 times per week, the animals were weighed and the data were recorded until day 20 (D20) after grouping.
The tumor volume (V) was calculated according to the equation: V=½×a×b^2, wherein a and b represent the length and the width, respectively.
T/C (%)=(T−T0)/(C−C0)×100, wherein T and C represent the tumor volume at the end of the experiment; and T0 and C0 represent the tumor volume at the beginning of the experiment.

Molecules are shown by their SMILES.

Turning to `CC(=O)OC1C(=O)C23CC2CC2OCC2(OC(C)=O)C3C(OC(=O)c2ccccc2)C2(O)CC(OC(=O)C(OC(=O)C(CCN(C)C(C)C)C(F)(F)F)C(NC(=O)OC(C)(C)C)c3ccccc3)C(C)=C1C2(C)C.O=C(O)C=CC(=O)O` (mixture of isomers) [Compound C41, 2′-O-[4-N-methyl-N-isopropylamino-2(R,S)-2-trifluoromethylbutyryl]larotaxel maleate], in data set [1] (12 mg/kg), the “Weight change (%) D5” value is listed as −10.5%, the “T/C (%) D20” value is on record as −34%, the “Tumor volume (mm^3) (D20)” value stood at 51.7 ± 11.9 mm^3 and the “Tumor inhibitory percent (%) D20” value turned out to be 67%. Also, in data set [1] (12 mg/kg), the “Tumor volume (mm^3) (D0)” value is 109.8 ± 2.9 mm^3.

`CC(=O)OC12COC1CCC1(C)C3OC(CN(C)C)OC3C3=C(C)C(OC(=O)C(OC(=O)C(CCN(C)C(C)C)C(F)(F)F)C(NC(=O)OC(C)(C)C)c4ncccc4F)CC(O)(C(OC(=O)c4ccccc4)C12)C3(C)C.O=C(O)CCC(=O)O` (mixture of isomers) [Compound C45, 2′-O-[4-N-methyl-N-isopropylamino-2(R,S)-2-trifluoromethylbutyryl]tesetaxel succinate]: in data set [1] (12 mg/kg), the “Weight change (%) D5” value is −11.4%, the “T/C (%) D20” value is −34%, the “Tumor volume (mm^3) (D20)” value was determined as 53.4 ± 12.4 mm^3 and the “Tumor inhibitory percent (%) D20” value turned out to be 85%. In data set [1] (12 mg/kg), the “Tumor volume (mm^3) (D0)” value stood at 112.3 ± 3.1 mm^3.

Regarding `CC(=O)OC12COC1CCC1(C)C3OC(CN(C)C)OC3C3=C(C)C(OC(=O)C(OC(=O)C(F)CC(C)N4CCCC4)C(NC(=O)OC(C)(C)C)c4ncccc4F)CC(O)(C(OC(=O)c4ccccc4)C12)C3(C)C.O=S(=O)(O)O` (mixture of isomers) [Compound C46, 2′-O-[4-(pyrrolidin-1-yl)amino-2(R,S)-fluorovaleryl]tesetaxel sulfate], in data set [1] (12 mg/kg), the “T/C (%) D20” value was −23%, the “Tumor volume (mm^3) (D20)” value came out at 61.2 ± 14.2 mm^3, the “Tumor inhibitory percent (%) D20” value is 58% and the “Tumor volume (mm^3) (D0)” value is 111.7 ± 2.8 mm^3.

For `CO[C@H]1C(=O)[C@]2(C)[C@@H](OC)C[C@H]3OC[C@@]3(OC(C)=O)[C@H]2[C@H](OC(=O)c2ccccc2)[C@]2(O)C[C@H](OC(=O)[C@H](OC(=O)[C@H](F)CCN(C)C)[C@@H](NC(=O)OC(C)(C)C)c3ccccc3)C(C)=C1C2(C)C.CS(=O)(=O)O` [Compound C7, 2′-O-[4-N,N-dimethylamino-2(R)-fluorobutyryl]cabazitaxel methanesulfonate], in data set [2], the “Sampling time/Dissociation percent (%) 2 min” value is 78.4%, the “Sampling time/Dissociation percent (%) 5 min” value was 94.8% and the “Sampling time/Dissociation percent (%) 10 min” value came out at 100%. In addition, in data set [3], the “Sampling time/Dissociation percent (%) 2 min” value is recorded as 49.7%, the “Sampling time/Dissociation percent (%) 5 min” value is 88.9% and the “Sampling time/Dissociation percent (%) 10 min” value was 100%. Besides, in data set [4], the “Weight change (%) D6” value was −14.2%, the “T/C (%) D20” value is listed as −67%, the “Tumor volume (mm^3) (D20)” value turned out to be 31.5 ± 11.8 mm^3 and the “Tumor inhibitory percent (%) D20” value amounted to 154%. In data set [4], the “Tumor volume (mm^3) (D0)” value was 111.5 ± 2.2 mm^3.

Take `CO[C@H]1C(=O)[C@]2(C)[C@@H](OC)C[C@H]3OC[C@@]3(OC(C)=O)[C@H]2[C@H](OC(=O)c2ccccc2)[C@]2(O)C[C@H](OC(=O)[C@H](OC(=O)[C@@H](F)CCN(C)C)[C@@H](NC(=O)OC(C)(C)C)c3ccccc3)C(C)=C1C2(C)C.CS(=O)(=O)O` [Compound C8, 2′-O-[4-N,N-dimethylamino-2(S)-fluorobutyryl]cabazitaxel methanesulfonate]: in data set [2], the “Sampling time/Dissociation percent (%) 2 min” value is on record as 85.6%, the “Sampling time/Dissociation percent (%) 5 min” value stood at 94.5% and the “Sampling time/Dissociation percent (%) 10 min” value stood at 100%. In addition, in data set [3], the “Sampling time/Dissociation percent (%) 2 min” value amounted to 49.4%, the “Sampling time/Dissociation percent (%) 5 min” value is listed as 88.4% and the “Sampling time/Dissociation percent (%) 10 min” value was 100%. In data set [4], the “Weight change (%) D6” value is −14.4%, the “T/C (%) D20” value was −66%, the “Tumor volume (mm^3) (D20)” value turned out to be 32.1 ± 12.1 mm^3 and the “Tumor inhibitory percent (%) D20” value was determined as 151%. Further, the “Tumor volume (mm^3) (D0)” value in data set [4] turned out to be 111.9 ± 2.0 mm^3.

Turning to `CO[C@H]1C(=O)[C@]2(C)[C@@H](OC)C[C@H]3OC[C@@]3(OC(C)=O)[C@H]2[C@H](OC(=O)c2ccccc2)[C@]2(O)C[C@H](OC(=O)[C@H](OC(=O)C(F)CCN(C)C)[C@@H](NC(=O)OC(C)(C)C)c3ccccc3)C(C)=C1C2(C)C.CS(=O)(=O)O` (stereo partly drawn) [Compound C9, 2′-O-[4-N,N-dimethylamino-2(R,S)-fluorobutyryl]cabazitaxel methanesulfonate], in data set [2], the “Sampling time/Dissociation percent (%) 2 min” value stood at 81.2%, the “Sampling time/Dissociation percent (%) 5 min” value amounted to 96.7% and the “Sampling time/Dissociation percent (%) 10 min” value came out at 100%. In data set [3], the “Sampling time/Dissociation percent (%) 2 min” value is 49.3%, the “Sampling time/Dissociation percent (%) 5 min” value came out at 88.6% and the “Sampling time/Dissociation percent (%) 10 min” value is 100%. Besides, in data set [4], the “Weight change (%) D6” value is −14.4%, the “T/C (%) D20” value is reported as −66%, the “Tumor volume (mm^3) (D20)” value turned out to be 32.5 ± 11.6 mm^3 and the “Tumor inhibitory percent (%) D20” value was determined as 151%. Further, the “Tumor volume (mm^3) (D0)” value in data set [4] is 111.4 ± 2.3 mm^3.

With `CC(=O)O[C@H]1C(=O)[C@]23C[C@H]2C[C@H]2OC[C@@]2(OC(C)=O)[C@H]3[C@H](OC(=O)c2ccccc2)[C@]2(O)C[C@H](OC(=O)[C@H](OC(=O)[C@H](F)CCN(C)C)[C@@H](NC(=O)OC(C)(C)C)c3ccccc3)C(C)=C1C2(C)C.Cl` [Compound C39, 2′-O-[4-N,N-dimethylamino-2(R)-fluorobutyryl]larotaxel hydrochloride], in data set [1] (12 mg/kg), the “Weight change (%) D5” value is −8.5%, the “T/C (%) D20” value is −62%, the “Tumor volume (mm^3) (D20)” value is 34.9 ± 13.3 mm^3 and the “Tumor inhibitory percent (%) D20” value is on record as 148%. The “Tumor volume (mm^3) (D0)” value in data set [1] (12 mg/kg) stood at 111.5 ± 2.2 mm^3.

As to `CCN(C)CCC(F)C(=O)OC(C(=O)OC1CC2(O)C(OC(=O)c3ccccc3)C3C4(OC(C)=O)COC4CC4CC43C(=O)C(OC(C)=O)C(=C1C)C2(C)C)C(NC(=O)OC(C)(C)C)c1ccccc1.Cl` [Compound C40, 2′-O-[4-N-methyl-N-ethylamino-2(R,S)-fluorobutyryl]larotaxel hydrochloride], in data set [1] (12 mg/kg), the “Weight change (%) D5” value is −9.1%, the “T/C (%) D20” value was −51%, the “Tumor volume (mm^3) (D20)” value is on record as 43.2 ± 12.7 mm^3 and the “Tumor inhibitory percent (%) D20” value amounted to 122%. In data set [1] (12 mg/kg), the “Tumor volume (mm^3) (D0)” value is 112.4 ± 1.8 mm^3.

With `CC(=O)O[C@@]12CO[C@@H]1CC[C@@]1(C)[C@@H]3O[C@H](CN(C)C)O[C@@H]3C3=C(C)[C@@H](OC(=O)[C@H](OC(=O)[C@H](F)CCN(C)C)[C@@H](NC(=O)OC(C)(C)C)c4ncccc4F)C[C@@](O)([C@@H](OC(=O)c4ccccc4)[C@@H]12)C3(C)C.Cl` [Compound C43, 2′-O-[4-N,N-dimethylamino-2(R)-fluorobutyryl]tesetaxel hydrochloride], in data set [1] (12 mg/kg), the “T/C (%) D20” value is reported as −61%, the “Tumor volume (mm^3) (D20)” value was found to be 31.8 ± 11.1 mm^3, the “Tumor inhibitory percent (%) D20” value is 153% and the “Tumor volume (mm^3) (D0)” value is reported as 111.5 ± 2.2 mm^3.

For `CCN(CC)CCC(F)C(=O)OC(C(=O)OC1CC2(O)C(OC(=O)c3ccccc3)C3C(C)(CCC4OCC43OC(C)=O)C3OC(CN(C)C)OC3C(=C1C)C2(C)C)C(NC(=O)OC(C)(C)C)c1ncccc1F.Cl` [Compound C44, 2′-O-[4-N,N-diethylamino-2(S)-fluorobutyryl]tesetaxel hydrochloride], in data set [1] (12 mg/kg), the “T/C (%) D20” value is recorded as −49%, the “Tumor volume (mm^3) (D20)” value was 41.3 ± 10.9 mm^3, the “Tumor inhibitory percent (%) D20” value was found to be 123% and the “Tumor volume (mm^3) (D0)” value is 113.6 ± 2.8 mm^3.

Regarding `CC(=O)O[C@H]1C(=O)[C@]23C[C@H]2C[C@H]2OC[C@@]2(OC(C)=O)[C@H]3[C@H](OC(=O)c2ccccc2)[C@]2(O)C[C@H](OC(=O)[C@H](O)[C@@H](NC(=O)OC(C)(C)C)c3ccccc3)C(C)=C1C2(C)C` [larotaxel, reference compound], in data set [1] (7 mg/kg), the “Weight change (%) D5” value was −8.4%, the “T/C (%) D20” value is given as −64%, the “Tumor volume (mm^3) (D20)” value is 33.3 ± 12.4 mm^3 and the “Tumor inhibitory percent (%) D20” value was found to be 153%. In data set [1] (7 mg/kg), the “Tumor volume (mm^3) (D0)” value worked out at 110.9 ± 2.4 mm^3.

Consider `CC(=O)O[C@@]12CO[C@@H]1CC[C@@]1(C)[C@@H]3O[C@H](CN(C)C)O[C@@H]3C3=C(C)[C@@H](OC(=O)[C@H](O)[C@@H](NC(=O)OC(C)(C)C)c4ncccc4F)C[C@@](O)([C@@H](OC(=O)c4ccccc4)[C@@H]12)C3(C)C` [tesetaxel, reference compound], for which, in data set [1] (8 mg/kg), the “T/C (%) D20” value is −58%, the “Tumor volume (mm^3) (D20)” value came to 33.7 ± 12.1 mm^3, the “Tumor inhibitory percent (%) D20” value is recorded as 146% and the “Tumor volume (mm^3) (D0)” value was 112.8 ± 2.2 mm^3.

The values are drawn from US9650390B2, “Water-soluble taxane derivatives and uses thereof” (priority 2014, dated 2017).
